Measured values reported in patent US9783552B2, “Soluble guanylate cyclase activators” (MERCK SHARP & DOHME CORP., priority 2013, dated 2017).

Columns and labels:
sGC α1/β1 heterodimer = biological target: T1, sGC α1/β1 heterodimer (Homo sapiens, UniProt Q02108+Q02153); test: Cell-Based sGC Functional Assay (CASA Assay); details: CHO-K1/sGC cells; for EC50: intracellular cGMP by HTRF, 1 hr at 37° C., IP from 4P fit, presence or absence of 1 μM DETA-NO not given; for Emax: cGMP as percentage of maximum cGMP production of Compound A (=100% activation), read-out: % ACT (percent activation)
T1 construct: expressed in transfected cells
T1 sequence (Q02108 1-690): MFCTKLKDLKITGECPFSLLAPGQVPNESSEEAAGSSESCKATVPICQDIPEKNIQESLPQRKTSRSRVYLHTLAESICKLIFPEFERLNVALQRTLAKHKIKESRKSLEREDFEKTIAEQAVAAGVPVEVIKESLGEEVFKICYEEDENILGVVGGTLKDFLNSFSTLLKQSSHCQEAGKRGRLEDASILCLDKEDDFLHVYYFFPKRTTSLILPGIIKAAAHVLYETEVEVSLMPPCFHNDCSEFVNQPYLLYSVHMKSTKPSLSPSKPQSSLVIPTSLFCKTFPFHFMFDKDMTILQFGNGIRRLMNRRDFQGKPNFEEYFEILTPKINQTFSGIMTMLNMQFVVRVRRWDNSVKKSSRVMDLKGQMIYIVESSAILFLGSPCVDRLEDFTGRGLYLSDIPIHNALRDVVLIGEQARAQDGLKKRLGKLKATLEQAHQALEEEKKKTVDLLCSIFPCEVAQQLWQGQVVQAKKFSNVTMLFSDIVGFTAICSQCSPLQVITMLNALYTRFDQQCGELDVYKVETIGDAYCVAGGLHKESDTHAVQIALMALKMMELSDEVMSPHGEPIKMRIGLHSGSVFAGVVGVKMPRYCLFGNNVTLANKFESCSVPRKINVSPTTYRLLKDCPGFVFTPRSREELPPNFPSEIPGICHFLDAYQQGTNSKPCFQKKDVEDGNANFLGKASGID
T1 sequence (Q02153 1-619): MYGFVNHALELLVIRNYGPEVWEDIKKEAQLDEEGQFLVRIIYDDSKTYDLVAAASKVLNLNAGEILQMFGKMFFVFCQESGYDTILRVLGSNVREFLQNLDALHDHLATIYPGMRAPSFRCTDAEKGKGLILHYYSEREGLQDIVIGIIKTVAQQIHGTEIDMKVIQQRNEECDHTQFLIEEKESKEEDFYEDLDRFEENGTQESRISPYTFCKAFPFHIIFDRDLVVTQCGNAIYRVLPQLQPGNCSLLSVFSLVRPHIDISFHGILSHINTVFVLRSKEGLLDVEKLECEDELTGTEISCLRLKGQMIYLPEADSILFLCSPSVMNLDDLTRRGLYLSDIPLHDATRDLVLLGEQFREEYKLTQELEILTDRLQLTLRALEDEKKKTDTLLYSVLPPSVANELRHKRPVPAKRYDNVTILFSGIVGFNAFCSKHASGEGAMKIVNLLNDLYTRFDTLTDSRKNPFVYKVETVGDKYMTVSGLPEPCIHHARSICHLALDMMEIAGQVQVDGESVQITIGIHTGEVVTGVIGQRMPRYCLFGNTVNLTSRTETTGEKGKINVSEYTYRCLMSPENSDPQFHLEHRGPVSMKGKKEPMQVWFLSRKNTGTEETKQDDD
Procedure, shortened: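 cGMP accumulation was quantified by HTRF in stable human sGC α1/β1 CHO-K1 cells after 1 hr at 37 °C with compound, 0.5 mM IBMX and 2.5% DMSO. Runs were done in the presence and absence of 1 μM of the NO donor DETA-NO. Activation was normalised to the reference heme-dependent activator maximum (100%), and a 4P fit gave IP and maximum fold induction.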

[1] = tested on: Spontaneously hypertensive rats (SHR); test: Acute Efficacy in Spontaneously Hypertensive Rats (SHR); assay type: in vivo, rat; details: single oral gavage
From the text: Acute Efficacy in Spontaneously Hypertensive Rats (SHR)
Spontaneously hypertensive rats (SHR, male, Charles River) were implanted with DSI TA 11PA-C40 telemetry device (Data Sciences, Inc., St. Paul, Minn.) under isoflurane or ketamine/metomidine anesthesia. The telemetry unit catheter was inserted into the descending aorta via the femoral artery and the telemetry device was implanted subcutaneously in the left flank area. Animals were allowed to recover from surgery for 14 days before the start of any studies. Blood pressure, heart rate, and activity signals from conscious, freely moving rats were recorded continuously for 30 seconds every 10 min. On the day prior to administration of compound, a single oral dose of vehicle (10% transcutol/20% Cremophor/70% water) was administered to all animals to establish baseline control data. The blood pressure lowering efficacy of compound (PO) or vehicle was evaluated following a single oral gavage. Data were collected as hourly averages, and changes in blood pressure were calculated by subtracting control baseline data on an hourly basis. Animals were maintained on normal diet with a 12 h light-dark cycle.
Maximum peak decreases of systolic blood pressure (SBP) in SHR at a particular P.O. dose (mpk milligrams per kilogram) for the following Example compounds are provided. Category A=SBP in SHRs<25 mmHg; Category B=SBP in SHRs 25-40 mmHg; Category C=SBP in SHRs>40 mmHg.

EC50 (sGC α1/β1 heterodimer) [µM]	Emax (sGC α1/β1 heterodimer) [%]	Structure (SMILES)	Maximum peak decrease of systolic blood pressure (SBP) in SHR, Category ([1]; Dose 0.3 mpk P.O.)	Maximum peak decrease of systolic blood pressure (SBP) in SHR, Category ([1]; Dose 3 mpk P.O.)	Maximum peak decrease of systolic blood pressure (SBP) in SHR, Category ([1]; Dose 1 mpk P.O.)
0.19	132	Cn1ncc2c(-c3nc(N)c4c(n3)NC(=O)C4(C)C(=O)NC3CC3)nc(CCC(F)(F)C(F)(F)F)nc21 (single isomer, unassigned) [Example 31, 4-Amino-N-cyclopropyl-5-methyl-2-(1-methyl-6-(3,3,4,4,4-pentafluorobutyl)-1H-pyrazolo[3,4-d]pyrimidin-4-yl)-6-oxo-6,7-dihydro-5H-pyrrolo[2,3-d]pyrimidine-5-carboxamide]	B (Category B=SBP in SHRs 25-40 mmHg)	–	–
0.429	97	[2H]C([2H])([2H])n1nnc2c(-c3nc(N)c4c(n3)NC(=O)C4(C)c3ccc(Cl)cc3F)nc(CCC(F)(F)C(F)(F)F)nc21 (single isomer, unassigned) [Example 73, 4-Amino-5-(4-chloro-2-fluorophenyl)-5-methyl-2-(5-(3,3,4,4,4-pentafluorobutyl-3-trideuteriomethyl)-3H-[1,2,3]triazolo[4,5-d]pyrimidin-7-yl)-5H-pyrrolo[2,3-d]pyrimidin-6(7H)-one]	–	A (Category A=SBP in SHRs<25 mmHg)	–
0.052	131	[2H]C([2H])([2H])n1ncc2c(-c3nc(N)c4c(n3)NC(=O)C4(C)C(=O)NC3CC3)nc(CCC(F)(F)C(F)(F)F)nc21 (single isomer, unassigned) [Example 32, 4-Amino-N-cyclopropyl-5-methyl-2-(6-(3,3,4,4,4-pentafluorobutyl)-1-trideuteriomethyl-1H-pyrazolo[3,4-d]pyrimidin-4-yl)-6-oxo-6,7-dihydro-5H-pyrrolo[2,3-d]pyrimidine-5-carboxamide]	–	–	A (Category A=SBP in SHRs<25 mmHg)
0.594	67	[2H]C([2H])([2H])n1nnc2c(-c3nc(N)c4c(n3)NC(=O)C4(C)c3ccc(OC)cc3)nc(CCC(F)(F)C(F)(F)F)nc21 (single isomer, unassigned) [Example 71, 4-Amino-5-(4-methoxyphenyl)-5-methyl-2-(5-(3,3,4,4,4-pentafluorobutyl-3-trideuteriomethyl)-3H-[1,2,3]triazolo[4,5-d]pyrimidin-7-yl)-5H-pyrrolo[2,3-d]pyrimidin-6(7H)-one]	–	–	A (Category A=SBP in SHRs<25 mmHg)
